# Source: patent US11236069B2, “KIF18A inhibitors” (AMGEN INC., priority 2018, dated 2022)
# Target: Recombinant human KIF18A (1-467 His-tagged) protein (Homo sapiens (Human), UniProt Q8NI77)
# Experiment: KIF18A Enzyme Assay: microtubule-stimulated ATPase activity (ADP-Glo)
# Settings: read-out: KIF18A ATPase IC50; 30 nM KIF18A, 30 μg/mL pig microtubules, ATP at Km 75 μM, ADP-Glo luminescence
# Text: KIF18A Enzyme Assay: Microtubule-stimulated ATPase activity assay is used to measure KIF18A enzyme activity after treatment with compound. Compounds were 2-fold serially diluted in DMSO (Sigma Inc) over 22-point concentration range. […] The assay measures ADP formed from the ATPase reaction.
# Chain of Recombinant human KIF18A (1-467 His-tagged) protein (Q8NI77 1-467): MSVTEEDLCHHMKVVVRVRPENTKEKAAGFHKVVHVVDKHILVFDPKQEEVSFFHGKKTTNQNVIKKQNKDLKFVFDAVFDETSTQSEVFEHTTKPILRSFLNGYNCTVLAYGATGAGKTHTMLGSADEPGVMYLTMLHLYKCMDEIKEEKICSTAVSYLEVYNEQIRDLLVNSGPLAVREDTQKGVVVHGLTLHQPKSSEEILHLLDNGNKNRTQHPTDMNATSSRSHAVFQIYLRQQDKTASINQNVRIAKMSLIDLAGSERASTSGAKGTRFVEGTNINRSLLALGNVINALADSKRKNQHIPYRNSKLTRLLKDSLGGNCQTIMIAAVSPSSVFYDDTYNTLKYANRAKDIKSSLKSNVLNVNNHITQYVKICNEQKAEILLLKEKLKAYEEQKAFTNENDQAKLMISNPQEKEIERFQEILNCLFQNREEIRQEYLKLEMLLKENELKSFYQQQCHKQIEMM
# Chain of Recombinant human KIF18A (1-467 His-tagged) protein (P02550 whole entry partner): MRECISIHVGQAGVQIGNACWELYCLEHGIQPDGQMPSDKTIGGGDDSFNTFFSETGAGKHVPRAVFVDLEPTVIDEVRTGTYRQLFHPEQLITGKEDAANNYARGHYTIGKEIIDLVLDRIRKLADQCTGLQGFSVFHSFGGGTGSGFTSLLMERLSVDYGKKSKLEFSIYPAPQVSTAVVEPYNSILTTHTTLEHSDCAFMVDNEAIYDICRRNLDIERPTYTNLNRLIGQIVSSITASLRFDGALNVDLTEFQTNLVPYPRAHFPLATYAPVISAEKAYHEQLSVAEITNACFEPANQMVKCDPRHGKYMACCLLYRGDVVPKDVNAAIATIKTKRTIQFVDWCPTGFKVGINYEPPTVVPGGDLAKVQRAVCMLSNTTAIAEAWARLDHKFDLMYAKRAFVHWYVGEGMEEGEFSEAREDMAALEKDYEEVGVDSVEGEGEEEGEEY
# Chain of Recombinant human KIF18A (1-467 His-tagged) protein (P02554 whole entry partner): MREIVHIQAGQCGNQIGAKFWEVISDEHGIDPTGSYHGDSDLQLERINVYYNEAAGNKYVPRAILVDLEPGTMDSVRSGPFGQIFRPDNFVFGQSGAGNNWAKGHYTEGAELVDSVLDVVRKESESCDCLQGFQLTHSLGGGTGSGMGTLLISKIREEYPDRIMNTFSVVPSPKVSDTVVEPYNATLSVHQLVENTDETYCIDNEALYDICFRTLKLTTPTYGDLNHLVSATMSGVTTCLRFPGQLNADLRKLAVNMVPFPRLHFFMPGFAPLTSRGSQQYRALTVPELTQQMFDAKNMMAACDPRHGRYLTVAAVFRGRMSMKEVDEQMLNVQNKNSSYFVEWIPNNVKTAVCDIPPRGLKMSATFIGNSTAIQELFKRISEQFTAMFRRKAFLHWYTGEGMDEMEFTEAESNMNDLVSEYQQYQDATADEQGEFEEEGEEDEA
row,SMILES,IC50 [nM]
1,"Cc1cc(NC(=O)c2ccc(NS(=O)(=O)CCO)cc2N2CCC3(CC2)CC3)cc(N2CCC(F)(F)CC2)n1 [Example 6-30, N-(2-(4,4-Difluoropiperidin-1-yl)-6-methylpyridin-4-yl)-4-((2-hydroxyethyl)sulfonamido)-2-(6-azaspiro[2.5]octan-6-yl)benzamide]",38.4
2,"Cc1cc(NC(=O)c2ccc(S(C)(=O)=O)cc2N2CCC3(CC2)CC3)nc(N2CCC(F)(F)CC2)n1 [Example 2-6, N-(2-(4,4-Difluoropiperidin-1-yl)-6-methylpyrimidin-4-yl)-4-(methylsulfonyl)-2-(6-azaspiro[2.5]octan-6-yl)benzamide]",260
3,"Cc1cc(NC(=O)c2ccc(NS(=O)(=O)CCO)cc2N2CCC3(CC2)CC3)nc(N2CCC3(CC2)CC3)n1 [Example 11-31, 4-((2-Hydroxyethyl)sulfonamido)-N-(6-methyl-2-(6-azaspiro[2.5]octan-6-yl)pyrimidin-4-yl)-2-(6-azaspiro[2.5]octan-6-yl)benzamide]",146
4,"Cc1cc(NC(=O)c2ccc(NS(C)(=O)=O)cc2N2CCC3(CC2)CC3)nc(N2CCC(F)(F)CC2)n1 [Example 6-21, N-(2-(4,4-Difluoropiperidin-1-yl)-6-methylpyrimidin-4-yl)-4-(methylsulfonamido)-2-(6-azaspiro[2.5]octan-6-yl)benzamide]",39
5,"Cc1cc(NC(=O)c2ccc(NS(=O)(=O)CCO)cc2N2CCC3(CC2)CC3)nc(N2CCC23COC3)n1 [Example 11-9, 4-((2-Hydroxyethyl)sulfonamido)-N-(6-methyl-2-(6-oxa-1-azaspiro[3.3]heptan-1-yl)pyrimidin-4-yl)-2-(6-azaspiro[2.5]octan-6-yl)benzamide]",128
6,"Cc1cc(NC(=O)c2ccc(NS(=O)(=O)CCO)cc2N2CCC3(CC2)CC3)nc(N2CC(C#N)C2)n1 [Example 11-13, N-(2-(3-Cyanoazetidin-1-yl)-6-methylpyrimidin-4-yl)-4-((2-hydroxyethyl)sulfonamido)-2-(6-azaspiro[2.5]octan-6-yl)benzamide]",67

# Results, then the compound that gave them:
row,IC50 [nM],SMILES
1,35,"CC[S@](=N)(=O)c1ccc(C(=O)Nc2cc(C)nc(N3CCC(F)(F)CC3)n2)c(N2CCC3(CC2)CC3)c1 (single isomer, unassigned) [Example 19-4, 2-(6-Azaspiro[2.5]octan-6-yl)-N-(2-(4,4-difluoro-1-pieridinyl)-6-methyl-4-pyrimidinyl)-4-(R-ethylsulfonimidoyl)benzamide]"
2,54,"Cc1cc(NC(=O)c2ccc(NS(=O)(=O)CCO)cc2N2CCC3(CC2)CC3)c(F)c(N2CCC(F)(F)CC2)n1 [Example 11-64, N-(2-(4,4-Difluoropiperidin-1-yl)-3-fluoro-6-methylpyridin-4-yl)-4-((2-hydroxyethyl)sulfonamido)-2-(6-azaspiro[2.5]octan-6-yl)benzamide]"
3,151,C[C@@H]1CN(c2cc(NC(=O)c3ccc(NS(=O)(=O)CCO)cc3N3CCC4(CC3)CC4)ccn2)CCO1 [Example 11-65]
4,187,"Cc1cc(NC(=O)c2ccc(NS(=O)(=O)CCO)cc2N2CCC3(CC2)CC3)nc(N2[C@H](C)COC[C@H]2C)n1 [Example 11-50, N-(2-((3R,5R)-3,5-Dimethylmorpholino)-6-methylpyrimidin-4-yl)-4-((2-hydroxyethyl)sulfonamido)-2-(6-azaspiro[2.5]octan-6-yl)benzamide]"
5,97,"Cc1cc(NC(=O)c2ccc(S(=O)(=O)[C@H]3COC[C@@H]3O)cc2N2CCC3(CC2)CC3)nc(N2CCC(F)(F)CC2)n1 [Example 14-8, N-(2-(4,4-Difluoropiperidin-1-yl)-6-methylpyrimidin-4-yl)-4-(((S,4S)-4-hydroxytetrahydrofuran-3-yl)sulfonyl)-2-(6-azaspiro[2.5]octan-6-yl)benzamide]"
6,438,"Cc1cc(NC(=O)c2ccc(S(C)(=N)=O)cc2N2CCC3(CC2)CC3)nc(N2CCC(F)(F)CC2)n1 (stereo not drawn) [Example 19-2, N-(2-(4,4-Difluoropiperidin-1-yl)-6-methylpyrimidin-4-yl)-4-(methylsulfonimidoyl)-2-(6-azaspiro[2.5]octan-6-yl)benzamide]"
